{"source": "patent US5922554A", "about": "“Inhibition of cellular uptake of cholesterol” (The Regents of the University of California, priority 1996, dated 1999)", "key": {"fibroblast ACAT": {"system": "fibroblast ACAT", "details": "30 μM; Goldstein et al. 1978; cited from earlier work"}, "[1]": {"system": "human hepatoblastoma (HepG2) cells", "details": "Lange 1994; cited from earlier work"}, "hepatocytes": {"system": "hepatocytes", "details": "30 μM; Lange 1994; cited from earlier work"}, "fibroblast monolayers": {"system": "fibroblast monolayers", "assay": "Influx/uptake of ^3 H-FC (free cholesterol) from labeled LDL (or plasma, HDL) into normal fibroblast monolayers", "format": "cell-based, human"}}}
{"smiles": "CC(=O)[C@H]1CC[C@H]2[C@@H]3CCC4=CC(=O)CC[C@]4(C)[C@H]3CC[C@]12C", "note": "[Progesterone]", "values": [{"measurement": "inhibition of fibroblast ACAT activity", "setting": "fibroblast ACAT", "value": "maximally inhibit"}, {"measurement": "transfer of FC from plasma membrane to cell interior", "setting": "[1]", "value": "promoted the transfer of FC"}, {"measurement": "inhibition of cholesterol transport in hepatocytes", "setting": "hepatocytes", "value": "inhibit"}, {"measurement": "LDL-FC influx (discussion, words)", "setting": "fibroblast monolayers", "value": "without effect"}, {"measurement": "inhibition of LDL-FC pathway (summary, words)", "setting": "fibroblast monolayers", "value": "not inhibited"}, {"measurement": "FC Influx", "setting": "fibroblast monolayers; LDL-FC 60.2 μg ml^-1, 60 min, 37° C., 30 min preequilibration with inhibitor at: Na-azide 1 mM, NH4-vanadate 1 mM, NEM 2 mM, KNO3 50 mM, progesterone 30 μM, forskolin 30 μM, IBMX 100 μM, chloroquine 20 μM", "value": "1.28 ± 0.06", "unit": "µg"}, {"measurement": "effect on LDL FC uptake", "setting": "fibroblast monolayers; Table 3 conditions", "value": "no effect"}, {"measurement": "FC Influx, % (PBS only = 100.0)", "setting": "fibroblast monolayers; same concentrations and conditions as Table 3 FC influx, 60 min", "value": 97.3, "unit": "%"}]}
